Tests used:
EZH2 [1] = test: EZH2 expression in peripheral CD4 T cells of patients with metastatic melanoma (RNA sequencing); assay type: in vivo, human; conditions: after three doses vs baseline, FIG. 2B
Excerpt: (§1) FIGS. 2A-2C: Ipilimumab increases EZH2 expression in T cells. (FIG. 2A) Unsupervised hierarchical cluster analysis of RNA sequencing data from the peripheral CD4 T cells of patients with metastatic melanoma before and after 3 doses of ipilimumab therapy (week 7). (FIG. 2B) Matched pair analysis of EZH2 expression before and after ipilimumab therapy. (FIG. 2C) Ezh2 expression in peripheral CD4 T cells from patients with metastatic prostate cancer at baseline and after 3 doses of ipilimumab therapy. (2 tailed student t test was used to determine significance; **p<0.01).
T cell activation by CD28 signaling induces EZH2 expression (DuPage et al., 2015). It was postulated that exaggerated CD28 signaling due to anti-CTLA-4 therapy would increase EZH2 expression in T cells. To test this hypothesis, peripheral CD4 T cells were isolated from patients with metastatic melanoma who received ipilimumab as the first line of therapy for metastatic disease, at baseline and after three doses of ipilimumab therapy.
Patient samples. […]
RNA sequencing. […] For bioinformatics analysis, the raw reads were aligned to the mm10 reference genome using TopHat2. HTSeq count was used to count the raw reads that were uniquely mapped to each gene. DESeq2 was then applied to normalize the raw read counts and identify the differentially expressed genes between the groups. […]

EZH2 [2] = test: EZH2 expression in peripheral CD4 T cells of patients with metastatic prostate cancer; assay type: in vivo, human; conditions: after three doses vs baseline, FIG. 2C
Excerpt: as §1
Next, EZH2 expression was confirmed in peripheral CD4 T cells isolated from patients with metastatic prostate cancer at baseline and after three doses of ipilimumab (Subudhi et al., 2016). Like in patients with metastatic melanoma, increased EZH2 expression was found in CD4 T cells following ipilimumab therapy (FIG. 2C) that inversely correlated with prostate-specific antigen progression (FIG. 6). Next, EZH2 expression was evaluated on human CD4 effector T cells (CD4^+CD45RO^−CD45RA^+CCR7^−), regulatory T cells (CD4^+CD25^+FoxP3^+) and CD8 T cells sorted from peripheral blood of at baseline and post-ipilimumab therapy.
Patient samples. Metastatic melanoma samples were obtained from patients who received ipilimumab as the standard of care. […]

EZH2 [3] = test: flow cytometry of EZH2 expression in sorted peripheral T cell subsets before and after ipilimumab; assay type: in vivo, human; conditions: peripheral blood, post-ipilimumab vs baseline; FIG. 7
Excerpt: FIG. 7: Flow cytometry analysis of EZH2 expression on CD4^+CD45RO^−CD45RA+CCR7^− (CD4 T effector, Teff), CD4^+CD25^+FoxP3^+ (T regulatory, T-reg) and CD8 T cells derived from peripheral blood mononuclear cells of patients with metastatic melanoma at baseline and after three doses of ipilimumab. Matched pair analysis of Ezh2 expression before and after ipilimumab therapy. Student t-test was used for significance (**p<0.01, *p<0.05).
Next, EZH2 expression was confirmed in peripheral CD4 T cells isolated from patients with metastatic prostate cancer at baseline and after three doses of ipilimumab (Subudhi et al., 2016). […] Next, EZH2 expression was evaluated on human CD4 effector T cells (CD4^+CD45RO^−CD45RA^+CCR7^−), regulatory T cells (CD4^+CD25^+FoxP3^+) and CD8 T cells sorted from peripheral blood of at baseline and post-ipilimumab therapy.
Tissue processing and flow cytometry. […] Staining with intracellular anti-Foxp3 (eBioscience, FJK-16 s), […] (eBioscience, PC61.5), antiKi-67 (eBioscience, SolA15), antiIFN-γ (BioLegend, XMG1.2), anti-TNF-α (BioLegend, MP6-XT22), and anti-EZH2 (Cell Signaling Technology, D2C9) were analyzed by flow cytometry according to the manufacturers’ instructions. Flow cytometry data were acquired on BD LSR II (BD Biosciences) and analyzed using FlowJo software (Tree Star, Ashland, Oreg.).

[4] = patients, in combination with other immune checkpoint therapy such as Nivolumab; cited from earlier work

ipilimumab: a fully human monoclonal immunoglobulin G1 antibody that blocks cytotoxic T lymphocyte associated protein 4
EZH2 expression in peripheral CD4 T cells (EZH2 [1]): increase | EZH2 expression in CD4 T cells (EZH2 [2]): increased | EZH2 expression in CD4 effector T cells, regulatory T cells and CD8 T cells (EZH2 [3]): increased in all three T cell subtypes | side effect profile [4]: manageable side effect profile

Reference: patent US20210260051A1, “COMBINATION OF EZH2 INHIBITOR AND CHECKPOINT THERAPY FOR THE TREATMENT OF CANCER” (Board of Regents, The University of Texas System, priority 2018, published 2021)
